The values below come from patent US7772177B2, “BIR domain binding compounds” (Aegera Therapeutics, Inc., priority 2005, dated 2010).

pEC50: −log10 of the molar value. Where a name gives a salt, the structure may show the parent alone. A value given as a limit tells only on which side of the number the result lay.

For assay [1], the system named is SKOV-3 cell line. Nature of the assay: Cell survival, SKOV-3 cell line. To be noted: Homo sapiens, SK-OV-3. Type of assay: cell-based. The procedure:
Survival assays were routinely done on MDA-MB-231 and H460 cells. Cells were seeded in 96 well plates at a respective density of 5000 and 2000 cells per well and incubated at 37° C. in presence of 5% CO2 for 24 hours. Selected compounds were diluted into the media at various concentration ranging from 0.01 uM up to 100 uM. Diluted compounds were added onto the MDA-MB-231 cells. For H460 cells, the compounds were added either alone or in presence of 3 ng/ml of TRAIL. After 72 hours cellular viability was evaluated by MTS based assays. A solution of [3-(4,5-dimethylthiazol-2-yl)-5-(3-carboxymethoxyphenyl)-2-(4-sulfophenyl)-2H-tetrazolium, inner salt; MTS] was added onto cells for a period of 1 to 4 hours. Upon incubation the amount of converted MTS was evaluated using a Tecan spectrophotometer set at 570 nm.
Various compounds, including compounds 16, 42, 44, 45, 48, 52, 53, 75, 84 and 89, were tested in the MDA-MB-231 breast derived cell line and found to have EC50 of <5 μM. […] Also, various compounds 175, 176, 177 and 178 were tested against SKOV-3 cell line, and found to have EC50 of <5 μM.

Assay [2] relates to selected cell lines in hollow fibers. As to the kind of experiment: Hollow fiber in vivo model. Set-up: species or system Nu/Nu CD-1 male mice. Conditions: Method 37, sub-cutaneous route. Here is the method:
At day 1, selected cell lines were cultured and the fiber filled at a cell density of about 40,000 cells/fiber. At the day of operation (day 4), three fibers are implanted sub-cutaneous into 28-35 Nu/Nu CD-1 male mice. On day 5, mice start to receive daily injection via sub-cutaneous route of control vehicle or vehicle containing the selected compound at the appropriate concentration and/or injection of cytotoxic agent via intra-peritoneal route. Upon 7 days of non-consecutive treatments, the animals are sacrificed, each fiber is removed and the metabolic viability of the remaining cells determined by MTT assay. Efficacy of the compound is define as the difference between the vehicle-treated animal and the animal treated with the compound alone or the compound given in combination of the cytotoxic agent

The subject of assay [3] is H460 cells. As to the kind of experiment: Combination anti-cancer therapy in vivo with Taxotere, H460 tumors. Conditions: cumulative dose of 20 mg/kg, sc per day. Set-up: species or system Female CD-1 nude mice. The procedure: Taxotere (30 mg/kg, ip)/Saline (n=9)
Taxotere (30 mg/kg, ip)/compound 56 (2×5 mg/kg, sc) (n=10)
Female CD-1 nude mice (approximately 20-25 g) were subcutaneously injected with 1×10^6 H460 cells in the right flank. Animals were balanced into groups based on tumor size and drug therapy began when tumors were ˜30-50 mm^3. Animals that had no tumor or that were deemed outliers because of excessive tumor size at this time were removed from the study. The remaining animals received Taxotere (or equivalent volume of vehicle) at 30 mg/kg, ip 2 times, one week apart. The compound was given two times per day (at 10 mg/kg, sc, approximately 6 hrs apart), starting at the time of Taxotere, and continuing daily for the duration of the experiment. If dehydration occurred, animals received sc fluids (0.5 ml). Tumor size was measured three times per week. Health assessments were performed at the time of the compound's delivery.

Assay [4] concerns XIAP BIR3. Nature of the assay: Pull-down assay with affinity beads, western blot. The class given is binding. Conditions: Method 33A.
Protocol: Prior to the pull-down assay the compound 168-affinity-agarose beads were prepared as follows:
300 ul of avidine-agarose beads prepared as 50% slurry in buffer A were incubated with 40 ul compound 168 (2.5 mM final) for 6 hrs at 4° C. with shaking. Upon incubation the beads were washed 3 times with buffer A.
On the day of the pull-down assay, cells such as MDA-MB-231 or 293A were collected and lyzed with a buffer A containing 20 mM Tris HCl, 150 mM NaCl, 10% Glycerol 1% NP-40 and Protease inhibitor cocktail obtained from Sigma with a final protein concentration between 3 to 30 ug/ul.
For the pull-down assay, 60 ul of the compound 168-beads preparation were incubated with 300 ug cells lysate and 10 ul compound 107 (0.36 mM final) or as control with 10 ul of buffer A to get a final volume of 550 ul. The mixture was then incubated at 4 C over night with shaking. The following day, the beads were washed three times with the buffer A and the final bead pellet was re-suspended in 50 ul of 2× Leamli buffer. The samples were then centrifuged and the supernatant was collected for western blot analysis directed against XIAP of the other IAP's.
Alternatively a similar protocol was performed with AVPI-Biotin and IPVA-Biotin probes.

Take `CN[C@@H](C)C(=O)N[C@H](C(=O)N1CCC[C@H]1CN(CCc1ccccc1)C(=O)CCCC(=O)N(CCc1ccccc1)C[C@@H]1CCCN1C(=O)[C@@H](NC(=O)[C@H](C)NC)C(C)(C)C)C(C)(C)C` [Compound 177]: the pEC50 (in general, −log10 of the EC50, conventionally taken in molar units) in assay [1] was over 5.30.

`CN[C@@H](C)C(=O)N[C@H](C(=O)N1CCC[C@H]1CN(CCc1ccccc1)C(=O)c1ccc(-c2ccc(C(=O)N(CCc3ccccc3)C[C@@H]3CCCN3C(=O)[C@@H](NC(=O)[C@H](C)NC)C(C)(C)C)cc2)cc1)C(C)(C)C` [Compound 178] showed a pEC50 in assay [1] of over 5.30.

As for `CN[C@@H](C)C(=O)N[C@H](C(=O)N1CCC[C@H]1CN(CCc1ccccc1)C(=O)[C@H](N)Cc1ccc(OC)cc1)C(C)(C)C` [54 bis-HCl], the “MTT signal in hollow fiber model” value in assay [2] is recorded as “reduction in MTT signal”. In assay [3], the “Anti-tumor activity in combination with Taxotere” value is listed as “anti-tumor activity”.

Molecule `CN[C@@H](C)C(=O)N[C@H](C(=O)N1CCC[C@H]1CN(CCc1ccccc1)C(=O)CCCCCCCCC(=O)N(CCc1ccccc1)C[C@@H]1CCCN1C(=O)[C@@H](NC(=O)[C@H](C)NC)C(C)(C)C)C(C)(C)C` [Compound 176] showed a pEC50 in assay [1] of over 5.30.

With `CN[C@@H](C)C(=O)N[C@H](C(=O)N1CCC[C@H]1CN(CCc1ccccc1)C(=O)c1ccc(C(=O)N(CCc2ccccc2)C[C@@H]2CCCN2C(=O)[C@@H](NC(=O)[C@H](C)NC)C(C)(C)C)cc1)C(C)(C)C` [Compound 175], the pEC50 in assay [1] is over 5.30.

Consider `CN[C@@H](C)C(=O)N[C@H](C(=O)N1CCC[C@H]1CN(CCc1ccccc1)C(=O)CCCCC1SC[C@@H]2NC(=O)N[C@H]12)C(C)(C)C` (stereo partly shown) [Compound 168], for which the “Pull-down of XIAP BIR3 (Western-blot)” value in assay [4] is reported as “XIAP BIR3 was pulled-down”.
